Where a name gives a salt, the structure may show the parent alone. Peptide text beside a SMILES is read from it. * marks the point of attachment. Cbz = O=C(OCc1ccccc1)*; CH2F = FC*
How the values were obtained:
[1] = test system: WEHI 231 cells; experiment: TUNEL analysis of Actinomycin D induced apoptosis, flow cytometry; format: cell-based, murine; design: key to rank of result in TUNEL analysis: ***: Best result; **: Second best result; *: Third best result; details: for effective concentration in TUNEL test: blind test by TUNEL method, conclusions; for efficacy in TUNEL test, in words: 10 sequences in a blind test
Experimental: Flow Cytometry measures the percent of the cell population undergoing apoptosis. The effect of the inhibitors is identified as a reduction in the percent of the cell population undergoing apoptosis. Cell Type: WEHI 231 cells, murine immature B cells (suspension) Plate cells at 2×10^5/ml in 10 ml of media (Total 2×10^6 cells) Preincubate caspase inhibitors (Formula I) one hour before inducing apoptosis. […] Actinomycin D (ActD) stock is 1 μg/μl add 10 μl/10 ml)-Treat 4 h Process for Tunel Analysis. (See Table 2 below). […] Cell Processing for Tunel Analysis and Flow Cytometry. Centrifuge cells at 300× g for 5 min and aspirate supernatant. Resuspend cells in 5.0 ml of cold 1× PBS, Spin at 300× g, 5 min. Aspirate supernatant. […] Incubate for 15 min. on ice. […] Aspirate supernatant. […] Aspirate supernatant. […] Aspirate supernatant. Resuspend the cell in 300 μl of cold IX PBS, Transfer to a 1.5 ml tube. […] Store at −20° C. at least 18 hr prior to Tunel Labeling Fixed cells are stable for at least 30 days. Process fixed cells for Tunel using the Apo-BRDU kit from Pharmingen (San Diego, Calif.) following the manufacturer's instructions and analyze by flow cytometry.

[2] = test system: WEHI 231 cells; experiment: TUNEL analysis, inhibitor alone (toxicity control); format: cell-based, murine; details: no ActD
Experimental: Flow Cytometry measures the percent of the cell population undergoing apoptosis. The effect of the inhibitors is identified as a reduction in the percent of the cell population undergoing apoptosis. Cell Type: WEHI 231 cells, murine immature B cells (suspension) Plate cells at 2×10^5/ml in 10 ml of media (Total 2×10^6 cells) Preincubate caspase inhibitors (Formula I) one hour before inducing apoptosis. […] [table] Process fixed cells for Tunel using the Apo-BRDU kit from Pharmingen (San Diego, Calif.) following the manufacturer's instructions and analyze by flow cytometry.

[3] = molecular target: T1, caspase 1 (Homo sapiens, UniProt P29466); experiment: Caspase inhibition assay, AcYVAD-AFC substrate; format: biochemical; details: from figure, antilog of log concentration; read-out: IC50 caspase 1
T1 sequence (P29466 120-297 limits assumed): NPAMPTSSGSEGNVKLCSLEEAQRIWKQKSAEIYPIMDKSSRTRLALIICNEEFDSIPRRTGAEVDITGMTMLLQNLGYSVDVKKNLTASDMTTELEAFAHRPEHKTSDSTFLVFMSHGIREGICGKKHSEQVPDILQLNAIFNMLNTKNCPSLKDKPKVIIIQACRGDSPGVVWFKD
T1 sequence (P29466 317-404 limits assumed): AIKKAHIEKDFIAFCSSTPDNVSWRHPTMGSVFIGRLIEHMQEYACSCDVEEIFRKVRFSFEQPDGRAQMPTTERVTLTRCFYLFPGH
Experimental: The determination of the IC50/μm was performed according to Gary Johnson, 9401 James Avenue, Suite No. 155, Bloomington, Minn. 55431.
Caspase Inhibition Assay:—Caspases are diluted in caspase buffer, 0.1 M HEPES, 10% sucrose 0.1% CHAPS and 10 mM DTT, pH 7.5. Caspases 1, 3, and 8 are used at a concentration of 144 U/well and caspase 9 is used at 4.8 U/well in a 96 well fluorometric plate.
Inhibitors are initially dissolved in DMSO at 10 mg/ml and further dilutions can be prepared in caspase buffer. The inhibitors are generally tested at concentrations ranging from 50 uM to 0.005 uM. These are usually prepared as 2 fold or 2.5 fold decreasing dilutions. The enzyme approximately 144 U in 120 ul caspase buffer is added to 380 ul caspase buffer containing the appropriate concentration on the inhibitor and incubated on ice for 15 min. The reactants 200 ul are then added to a black fluorimetric plate and incubated in the fluorometer at 37° C. for 30 min.
During the incubation period appropriate coumarin substrates are prepared by dilution in DMSO and caspase buffer to provide a 0.417 mM working stock. AcYVAD-AFC is used for caspase 1, AcDEVD-AFC for caspase 3. AcIETD-AFC for caspase 8 and Ac-LEHD-AFC for capsase 9. Twenty five microliters of the stock solution are added to 200 ul of the caspase and inhibitor test solutions to give a final substrate concentration of 0.046 mM.
The fluorometer is set to 400 nm excitation and 505 nm emission. The enzyme-inhibitor-substrate is allowed to incubate at for an additional twenty min. and the response is read as fluorescence units vs inhibitor concentration. The responses are plotted as percent of the maximum response (response in the absence of inhibitor) for each concentration of the inhibitor. The inhibitory activity for each inhibitor is described as the concentration of inhibitor that produces a 50% inhibition of the maximum response (IC50).

[4] = 1 μM inhibitor + ActD, WEHI 231, lower = greater inhibitory activity
[5] = 10 μM inhibitor + ActD, WEHI 231
[6] = 20 μM inhibitor + ActD, WEHI 231
[7] = 30 μM inhibitor + ActD, WEHI 231
[8] = 40 μM inhibitor + ActD, WEHI 231
[9] = 50 μM inhibitor + ActD, WEHI 231
[10] = 100 μM inhibitor + ActD, WEHI 231
[11] = markers in structure designation table

| Molecule | % non-viable cells [1, 4] | % non-viable cells [1, 5] | % non-viable cells [1, 6] | % non-viable cells [1, 7] | % non-viable cells [1, 8] | % non-viable cells [1, 9] | % non-viable cells [1, 10] | effective concentration in TUNEL test [1] | % non-viable cells, inhibitor alone ([2]; 20 μM Inh alone) | % non-viable cells, inhibitor alone ([2]; 100 μM Inh alone) | efficacy in TUNEL test, in words [1] | rank of result in TUNEL analysis ([1]; Table 3 markers) | rank of result in TUNEL analysis [1, 11] | IC50 [3] |
| --- | --- | --- | --- | --- | --- | --- | --- | --- | --- | --- | --- | --- | --- | --- |
| 4HQ-Ala-Asp(OMe)—CH2—OPh [Inhibitor H^1] | 81% | 92% | 88% | 91% | 85% | 82% | 83% | not effective | 3% | 2% | – | – | – | – |
| COC(=O)CC(NC(=O)CCNC(=O)c1ccc2ccccc2n1)C(=O)CF (stereo not drawn) [Inhibitor A^1, Q-βAla-Asp(OMe)-FMK] | 62% | 57% | 42% | 40% | 15% | 32% | 9% | 40 µM | 5% | 5% | – | – | – | – |
| COC(=O)CC(NC(=O)C(C)NC(=O)c1ccc2ccccc2n1)C(=O)CF (stereo not drawn) [Inhibitor D^1, Q-Ala-Asp(OMe)-FMK] | 88% | 67% | 16% | 2% | 1% | 2% | 1% | 20 µM | 6% | 8% | most efficacious | D^1* | Q-Ala-Asp(OMe)-FMK* | – |
| COC(=O)CC(NC(=O)C(C)NC(=O)C(NC(=O)OCc1ccccc1)C(C)C)C(=O)COc1c(F)cccc1F (stereo not drawn) [Inhibitor G^1, 2-Val-Ala-Asp(OMe)—CH2—OPh] | 56% | 62% | 57% | 52% | 62% | 56% | 8% | 100 µM | 1% | 1% | – | – | – | – |
| COC(=O)CC(NC(=O)C(NC(=O)c1ccc2ccccc2n1)C(C)C)C(=O)COc1c(F)cccc1F (stereo not drawn) [Inhibitor I^1, Q-Val-Asp(OMe)—CH2—OPh] | 88% | 2% | 3% | 2% | 3% | 2% | 2% | 10 µM | 2% | 53% | most efficacious | I^1*** | Q-Val-Asp(OMe)—CH2—OPh*** | – |
| COC(=O)CC(NC(=O)C(CC(C)C)NC(=O)c1ccc2ccccc2n1)C(=O)COc1ccccc1 (stereo not drawn) [Inhibitor J^1, Q-Leu-Asp(OMe)—CH2—OPh] | 88% | 16% | 3% | 2% | 2% | 2% | 3% | 10 µM | 1% | 1% | most efficacious | J^1** | Q-Leu-Asp(OMe)—CH2—OPh** | ~940 nM |
| COC(=O)CC(NC(=O)[C@@H](NC(=O)[C@@H](N)Cc1c[nH]c2ccccc12)C(C)C)C(=O)COc1ccccc1 (stereo partly drawn) [TFA Trp-V-D(OMe)—CH2—O—Ph TFA] | – | – | – | – | – | – | – | – | – | – | – | – | – | ~624 nM |
| COC(=O)CC(NC(=O)C(C)NC(=O)C(NC(=O)OCc1ccccc1)C(C)C)C(=O)CF (stereo not drawn) [Z-VAD-FMK, Benzyloxycarbonyl-Val-Ala-Asp (OMe) fluoromethylketone, reference compound] (Cbz-Val-Ala-Asp(OMe)-CH2F; configuration not given here) | 33% | 64% | 17% | 19% | 12% | 8% | 6% | 20 µM | 3% | 7% | – | – | – | – |

Source: patent publication US20020052323A1, “Quinoline-(C=O)-(multiple amino acids)-leaving group compounds for pharmaceutical compositions and reagents” (priority 2000, published 2002)
